According to publication PMC3982590 (Biochemistry, 2013):

Target: T1, TtPFK (Thermus thermophilus, UniProt P21777, L313W)
T1 sequence (P21777 1-322 L313W): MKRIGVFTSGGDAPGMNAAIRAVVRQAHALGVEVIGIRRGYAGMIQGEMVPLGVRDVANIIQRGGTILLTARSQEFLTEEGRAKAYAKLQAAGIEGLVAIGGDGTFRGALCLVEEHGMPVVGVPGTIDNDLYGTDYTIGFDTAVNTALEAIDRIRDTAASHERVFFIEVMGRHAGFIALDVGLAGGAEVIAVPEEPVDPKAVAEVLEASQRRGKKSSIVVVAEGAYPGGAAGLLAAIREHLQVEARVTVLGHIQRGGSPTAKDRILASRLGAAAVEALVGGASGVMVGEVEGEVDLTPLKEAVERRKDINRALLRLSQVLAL
Assay: intrinsic tryptophan fluorescence titration
Format: binding

SMILES: C=C(OP(=O)(O)O)C(=O)O [PEP]
- Kd: 660 ± 60 nM
